Reference: patent US20250263408A1 (Uniquest Pty Ltd, priority 2022, published 2025)

How the values were obtained:
[1] = tested on: MDR1 (Pgp); test: Permeability Assay, bi-directional flux in MDCKII-MDR1 cells; assay type: in vitro ADME, canine; conditions: dog; for Papp at 2 h, 10 PM: MDCK-MDR1, 2 hours at 37° C., concentration printed as 10 PM; for efflux ratio at 2 h, 10 PM: MDCK-MDR1, ratio >2 indicates the compound is effluxed, read-out: efflux ratio (PappB-A/PappA-B)
Method: The assay was performed using Charles River/Agilux default assay conditions and default acetonitrile extraction and bioanalytical conditions. The assay was performed using MDCKII-MDR1 (Pgp) cells (canine MDCK stably transfected with MDR1). Bi-directional (A-B and B-A) flux measurements were carried out in triplicate aliquots from duplicate wells. The compounds were incubated for 2 hours at 37° C. at a concentration of 10 PM. The efflux ratio is the ratio of PappB-A/PappA-B, and a ratio >2 indicates the compound is effluxed.

[2] = tested on: Ba/F3-WT (wild type) cells; test: Ba/F3 Proliferation Assay, Ba/F3-WT (wild type) cells with mIL-3 (Resazurin); assay type: cell-based; conditions: Mus musculus, BaF3, 48 h, Ba/F3-WT cells +mIL-3, 48-hour incubation
[3] = Brain Penetration Assays: Mouse Pharmacokinetics (plasma and brain levels after oral dose); assay type: in vivo; conditions: male, CD-1, mouse, mice, 1 hour post oral dose of 10 mg/kg; for concentration at 1 h: brain (free, unbound); for Kp at 1 h: brain / plasma (unbound), read-out: Kpu,u (ratio of unbound brain levels to unbound plasma levels)
Method: Male CD-1 mice (6-8 weeks of age, 3 animals per timepoint) were dosed via oral gavage (10 mL/kg) with compound (10 mg/kg, 0.5% methylcellulose in water). Blood samples were taken either non-terminal via saphenous vein or terminal via cardiac puncture and stored in 1.5 mL Eppendorf tubes containing 0.010 mL of 10% K2EDTA, mixed gently and placed in ice before centrifugation. Blood was centrifuged at 10,000 r.p.m. for 2 minutes, plasma harvested and stored at −80° C. Following blood collection at the terminal time points, animals were sacrificed with C02 and brains quickly removed, rinsed with cold saline (0.9% NaCl), surface vasculature ruptured, blotted with dry gauze or tissue and weighed. The whole brain was homogenized in 1.0 mL ice cold phosphate-buffered saline, pH 7.4 and the homogenates stored at −80° C. Compound concentrations were quantified in plasma and brain tissue by LC-MS/MS using a partially validated bioanalytical method.
(§1) The Rapid Equilibrium Dialysis (RED) method was employed with plasma (200 μL, BioIVT, USA) in phosphate buffered saline (PBS, 350 μL) incubated with compound (1 μM) at 37° C. for 5 hours shaking at 450 r.p.m. Acetonitrile (3 volumes) was added and the sample centrifuged for 5 minutes and 1050 r.p.m. then for 15 minutes at 4000 r.p.m. Compound concentrations were quantified via LC-MS/MS from supernatant and free drug was calculated.
as §1, with “RED” for “Rapid Equilibrium Dialysis (RED)”, “mouse brain homogenate (10% w/v prepared in-house))” for “plasma (200 μL, BioIVT, USA) in phosphate buffered saline (PBS, 350 μL)”, “14” for “15”

[4] = target: T1, Syk (Homo sapiens, UniProt P43405); test: Syk Biochemical Assay (ADP-Glo luminescence); conditions: ATP 40 μM final, 60 minutes, read-out: SYK Biochem IC50
T1 construct: purchased Promega

[5] = target: T2, Ba/F3-Syk cells (Homo sapiens, UniProt P43405); test: Ba/F3 Proliferation Assay, Ba/F3-Syk cells (Resazurin); assay type: cell-based; conditions: 48-hour incubation
T2 construct: fused on or other part: Possible but unprinted fusion partner: TEL (ETV6), the usual partner for Ba/F3 lines transformed by Syk; Nothing on a partner is printed

SMILES	Papp at 2 h, 10 PM [1] [×10⁻⁶ cm/s]	efflux ratio at 2 h, 10 PM [1]	EC50 [2] [nM]	concentration at 1 h [3] [nM]	Kp at 1 h [3]	IC50 [4] [nM]	EC50 [5] [nM]
CC(C)n1cc(-c2cc(OC[C@@H]3CNCC(C)(C)O3)c3cccnc3c2)cn1 [Compound 3.6, 5-{[(2S)-6,6-dimethylmorpholin-2-yl]methoxy}-7-[1-(propan-2-yl)-1H-pyrazol-4-yl]quinoline]	15 to 20	1 to 2	2120	≤ 25	0.05 to 0.1	10.6	23.3
CC(C)n1ccc(-c2cc3ncccc3c(OC[C@@H]3CNCCO3)n2)c1 [Compound 6.2, 5-{[(2S)-morpholin-2-yl]methoxy}-7-[1-(propan-2-yl)-1H-pyrrol-3-yl]-1,6-naphthyridine]	> 20	1 to 2	2550	–	0.1 to 0.2	16	35.6
CC(C)n1ccc(-c2cc3ncccc3c(OC[C@@H]3CNCC(C)(C)O3)n2)c1 [Compound 6.9, 5-{[(2S)-6,6-dimethylmorpholin-2-yl]methoxy}-7-[1-(propan-2-yl)-1H-pyrrol-3-yl]-1,6-naphthyridine]	15 to 20	≤ 1	3300	–	0.1 to 0.2	14.1	11.4
Cn1ccc(-c2cc(OC[C@@H]3CNCCO3)c3cccnc3c2)c1 [Compound 3.1, 7-(1-methyl-1H-pyrrol-3-yl)-5{-[(2S)-morpholin-2-yl]methoxy}quinoline]	15 to 20	≤ 1	2660	–	0.1 to 0.2	48.1	78.2
CC(C)n1ccc(-c2cc3ncccc3c(O[C@H](C)[C@@H]3CNCCO3)n2)c1 [Compound 6.28, 5-[(1R)-1-[(2S)-morpholin-2-yl]ethoxy]-7-[1-(propan-2-yl)-1H-pyrrol-3-yl]-1,6-naphthyridine]	–	–	2680	≤ 10	0.2 to 0.3	41.8	15
CCn1ccc(-c2cc3ncccc3c(OC[C@@H]3CNCC(C)(C)O3)n2)c1 [Compound 6.19, 5-{[(2S)-6,6-dimethylmorpholin-2-yl]methoxy}-7-(1-ethyl-1H-pyrrol-3-yl)-1,6-naphthyridine]	–	–	5020	> 25	0.1 to 0.2	11.9	21.4
Cn1ccc(-c2cc(OC[C@@H]3CNCC(C)(C)O3)c3cccnc3c2)c1 [Compound 3.10, 5-{[(2S)-6,6-dimethylmorpholin-2-yl]methoxy}-7-(1-methyl-1H-pyrrol-3-yl)quinoline]	–	–	4610	> 25	0.2 to 0.3	35	53.2
CC1(C)CNC[C@@H](COc2nc(-c3cnn(C(C)(C)C)c3)cc3ncccc23)O1 [Compound 2.42, 7-(1-tert-butyl-1-pyrazol-4-yl)-5-{[(2S)-6,6-dimethylmorpholin-2-yl]methoxy}-1,6-naphthyridine]	> 20	≤ 1	2340	> 25	0.1 to 0.2	12.2	12.5
C[C@@H](Oc1nc(-c2cnn(C(C)(C)C)c2)cc2ncccc12)[C@@H]1CNCCO1 [Compound 2.67, 7-(1-tert-butyl-1H-pyrazol-4-yl)-5-[(1R)-1-[(2S)-morpholin-2-yl]ethoxy]-1,6-naphthyridine]	–	–	1860	≤ 25	0.1 to 0.2	29.5	18.6
CCn1ccc(-c2cc3ncccc3c(OC[C@@H]3CNCCCO3)n2)c1 [Compound 6.26, 7-(1-ethyl-1H-pyrrol-3-yl)-5-{[(2S)-1,4-oxazepan-2-yl]methoxy}-1,6-naphthyridine]	–	–	> 10000	≤ 10	0.1 to 0.2	32.1	21.4
Cn1ccc(-c2cc3ncccc3c(OC[C@@H]3CNCCO3)n2)c1 [Compound 2.20, 7-(1-methyl-1H-pyrrol-3-yl)-5-{[(2S)-morpholin-2-yl]methoxy}-1,6-naphthyridine]	> 20	≤ 1	4170	> 25	0.2 to 0.3	37.8	87.5
